In patent US20230270148A1, “BITTER BLOCKERS AND RELATED METHODS OF USE” (Conagen Inc., priority 2020, published 2023):

Experiments:
[1] = tested on: bitter-responsive human taste bud tissue-derived cells (hTBEC); assay: ATP secretion detection assay (luminescence); assay type: cell-based
Method: (§1) The bitter blocker candidates were further characterized using bitter-responsive human taste bud tissue-derived cells (hTBEC) platforms and bioassays. Bitter-responsive hTBECs were treated with hitter blocker candidates and various bitter agonists to assess the efficacy of each bitter blocker candidate in reducing the bitterness of each of the various bitter agonists.
One industry standard bitter agonist was used as a control (L-Praziquantel), and five bitter blocker controls were used (Senomyx BB68, STX-001, sodium gluconate, eridictyol, and homoeridictyol).
BB09, BB11, and BB13 were first tested at various concentrations in combination with 100 μM Dextromethorphan-HBr.
Next, bitter blocker concentration ranges were narrowed (100 μM-1,000 μM) and compared to a fixed concentration of stimulus. […] BB13 was evaluated further by real time ATP secretion detection in pooled hTBEC 66 cells treated with 300 μM Theobromine.
Each culture was treated with BB09, BB11, BB13, STX001, or Senomyx BB68, as well as either Dextromethorphan-HBr at 1000 μM (FIGS. 18A-18C), Theobromine at 1,000 μM (FIGS. 19A-19C), Rebaudioside A at 1 mM (FIGS. 20A-20C), or Caffeine at 3 mM (FIGS. 21A-21C).

[2] = tested on: peach-flavored energy drink (caffeine, B vitamins); assay: Sensory evaluation: bitterness reduction of a peach-flavored energy drink; assay type: in vivo; conditions: dosage per sample
Method: (§2) The bitterness blocker candidates listed in Table 1 were prepared into a 1% sample solution with propylene glycol and heated to ensure complete solubilization. […] A trained sensory evaluator was asked to estimate the perceived bitterness reduction against the control, as well as to provide comments on how the addition of the individual sample solution modulated the taste and mouth feel profile of the resulting peach-flavored energy drink.

[3] = tested on: individual donor-derived hTBECs; assay: Cell calcium mobilization assay; assay type: cell-based, human
Method: as §1
Calcium mobilization response following treatment of 100 μM Dextromethorphan-HBr, 3000 μM Theobromine, and 3 mM Caffeine was evaluated in individual donor-derived hTBECs.

caffeine in water = assay: Two-alternative forced choice (2AFC) difference test; assay type: in vivo
Method: The bitter blocker candidates BB09, BB11, and BB13 were subject to a two-alternative forced choice (2AFC) difference test wherein panelists were presented Control Caffeine solutions and Test solutions containing caffeine and one of three bitterness blocker candidates (BB09, BB 11, or BB13). Panelists were asked to evaluate the two samples and answer the question, “which one is more hitter?”
BB09 and BB11 were tested first. Three ounces of control (caffeine in water), BB09 in caffeine water, and BB11 in caffeine water were presented at room temperature in separate plastic souffle cups labeled with 3-digit codes. Ten sensory trained panelists evaluated each sample in three repetitions with a 10 minute break between repetitions. Panelists then completed the 2AFC. Data was collected on EveQuestion and analyzed on XLSTAT. Testing was conducted at Sensations Research according to FEMA guidelines.
BB13 was tested separately. Two ounces of control (caffeine in water), BB13 in caffeine water were presented at room temperature in separate plastic souffle cups labeled with 3-digit codes. Fifteen participants evaluated each sample in two repetitions with a 10 minute break between repetitions for a total of thirty evaluations as per the FEMA guidelines. Panelists then completed the 2AFC to identify the more bitter sample. Data was collected and analyzed on Compusense.

dark roast coffee = assay: Sensory evaluation: bitterness reduction of dark roast coffee; assay type: in vivo; conditions: dosage 50 or 100 ppm per sample
Method: as §2, with “dark roast coffee.” for “peach-flavored energy drink.”

[4] = of thirty evaluations (15 participants, 2 repetitions)

Structure (SMILES): O=C1C[C@@H](c2ccc(O)c(O)c2)Oc2c1c(O)cc(O)c2[C@@H]1O[C@H](CO)[C@@H](O)[C@H](O)[C@H]1O [BB13, Eriodictyol-8-C-β-glucoside]
- inhibition of luminescence signal from Dextromethorphan-HBr ([1]; 100 μM Dextromethorphan-HBr, blocker 100 μM-1,000 μM, upper concentrations, individual donor-derived hTBECs (FIG. 14A)): inhibited luminescence signal
- inhibitory activity against Dextromethorphan-HBr (ATP secretion) ([1]; 100 μM Dextromethorphan-HBr, blocker 1 mM, all three hTBEC cultures (FIG. 22A)): consistently showed inhibitory activity
- inhibition of luminescence activity of Dextromethorphan-HBr (ATP secretion) ([1]; 100 μM Dextromethorphan-HBr, various blocker concentrations (FIG. 12)): able to inhibit
- inhibition of luminescence signal from L-Praziquantel ([1]; 400 μM L-Praziquantel, blocker 100 μM-1,000 μM, upper concentrations, individual donor-derived hTBECs (FIG. 14B)): inhibited luminescence signal
- inhibitory activity against L-Praziquantel (ATP secretion) ([1]; 400 μM L-Praziquantel, blocker 1 mM, all three hTBEC cultures (FIG. 24)): consistently showed inhibitory activity
- inhibition of the L-Praziquantel response (ATP secretion) ([1]; 400 μM L-Praziquantel, pooled donor-derived hTBEC (FIG. 13)): showed inhibition
- inhibitory activity against Rebaudioside A (ATP secretion) ([1]; 1 mM Rebaudioside A, blocker 1 mM, all three hTBEC cultures (FIG. 23A)): consistently showed inhibitory activity
- real time Rebaudioside A-induced ATP secretion ([1]; 1 mM Rebaudioside A, blocker 1,000 μM, pooled hTBEC 56 cultures (FIG. 17)): attenuated
- inhibitory activity against Theobromine (ATP secretion) ([1]; 1,000 μM Theobromine, blocker 1 mM, all three hTBEC cultures (FIG. 22B)): consistently showed inhibitory activity
- inhibitory activity against Caffeine (ATP secretion) ([1]; 3 mM Caffeine, blocker 1 mM, all three hTBEC cultures (FIG. 23B)): consistently showed inhibitory activity
- inhibition of Rebaudioside A-induced ATP secretion ([1]; 3 mM Rebaudioside A, pooled hTBEC 56 cultures, blocker 100, 300 or 1,000 μM (FIG. 16)): strongest inhibition
- inhibition of the bitter agonists (ATP secretion) ([1]; hTBEC 66, hTBEC 56, hTBEC Donor H, Dextromethorphan-HBr at 1000 μM, Theobromine 1,000 μM, Rebaudioside A 1 mM or Caffeine 3 mM (FIGS. 18-21)): most consistent inhibition
- real time ATP secretion response to Theobromine ([1]; pooled hTBEC 66 cells, 300 μM Theobromine, blocker at 1 mM (FIG. 15)): attenuated the Theobromine-stimulated signal
- Comments [2]: Excellent bitter blocking
- inhibition of calcium mobilization induced by Dextromethorphan-HBr ([3]; 100 μM Dextromethorphan-HBr, blocker 0.3 μM to 1,000 μM, at high concentrations (FIG. 25)): inhibited calcium mobilization
- inhibition of calcium mobilization induced by Caffeine ([3]; 3 mM Caffeine, blocker 1,000 μM, hTBEC 56 cells (FIG. 27)): inhibited calcium mobilization
- inhibition of calcium mobilization induced by Theobromine ([3]; 3000 μM Theobromine, blocker 1 μM to 3,000 μM, at high concentrations (FIG. 26)): inhibited calcium mobilization
- significance of bitterness difference control vs sample (caffeine in water; 90% and 95% confidence interval (FIG. 11)): control sample was significantly more bitter
- panelists' description of samples (caffeine in water; blocker in caffeine water): initial sweetness that mask the bitterness, less lingering bitterness, and having a nutty taste
- evaluations identifying the sample containing the blocker as more bitter (caffeine in water; [4]): three
- evaluations selecting control as more bitter (caffeine in water; [4]): Twenty-seven
- Comments (dark roast coffee): Very smooth with nice upfront
